Experimental findings from US20080134931A1, “Plasterboards Provided With Antimicrobial Effect” (priority 2005, published 2008) are described below.

Read-outs that look alike come from different tables or passages of the source. Where only a bound is given, the exact number is not on record here.

Assay [1] relates to mixture of moulds: Penicillium glaucum, Chaetomium globosum, Aspergillus niger, Aureobasidium pullulans. Description: Microbiological resistance of plasterboard treated with OPP in the gypsum core after inoculation with a fungal mixture, humid environment. The source says: For checking the effectiveness of a plasterboard treated with OPP in the gypsum core, the resistance was investigated in the laboratory after inoculation with a fungal mixture. For this purpose, sandwich-type plasterboard samples having the dimensions 14×5 cm are transferred to a 1 litre powder bottle and suspended by the bottle cap. At the start of the experiment, the test specimens thus prepared are immersed once in a mixture of the following moulds to simulate a strong fungal attack:
The mould species are material pests well known to the person skilled in the art and are therefore suitable for a qualifying conclusion about the degree of antimicrobial protection of a product treated with an OPP or the sodium or potassium salt thereof and optionally further active components. The sample boards are stored at room temperature over a period of up to 8 weeks, a water vapour-saturated atmosphere being continuously ensured by maintaining the initial amount of water at the bottom of the vessel (direct contact between plasterboard and water is not permitted). The assessment of the test specimens is effected at certain times and is carried out according to the following rating scheme:
0=no growth on the surface
1=slight growth (<10% of the surface infested)
2=moderate growth (<50% of the surface infested)
3=strong growth on the surface
Microbiological resistance of a plasterboard contaminated once in a humid environment

The test system of assay [2] is Aspergillus flavus. Description: Minimum inhibitory concentration and synergism (Kull synergy index) of OPP/TBZ. It is filed as cell-based. The following applies: read-out: Amount of pure active substances which suppress growth (QA, QB; minimum inhibitory concentration). The source says: For improving the overall performance of an antimicrobial treatment, the use of active substance mixtures is customary for compensating, for example, for gaps in the activity of one component or for optimizing the costs of preservation.
The synergism found for the mixture according to the invention can be determined via the following mathematical formula (cf. F. C. Kull, P. C. Elisman, H. D. Sylwestrowicz and P. K. Mayer, Appl. Microbiol. 9, 538 (1961):
Qa=amount of component A in the active substance mixture which achieves the desired effect, i.e. no microbial growth,
QA=amount of component A which, when used alone, suppresses the growth of the micro-organisms,
Qb=amount of component B in the active substance mixture which suppresses the growth of the micro-organisms,
QB=amount of component B which, when used alone, suppresses the growth of the micro-organisms.
Synergism of o-phenylphenol (OPP)/thiabendazole (TBZ)
Using the test micro-organism, Aspergillus flavus, the minimum inhibitory concentration of the active substance combinations listed in Table 2 were investigated.

Turning to `Oc1ccccc1-c1ccccc1` [OPP, o-phenylphenol], the “Rating (mould growth on plasterboard surface)” value in assay [1] (300 ppm OPP in the gypsum core, 1 week, water vapour-saturated atmosphere, room temperature) is on record as 0/0; in assay [1] (300 ppm OPP in the gypsum core, 3 weeks), 0/0; in assay [1] (300 ppm OPP in the gypsum core, 4 weeks) it was 0/0; in assay [1] (300 ppm OPP in the gypsum core, 8 weeks) it was 0/0; in assay [1] (500 ppm OPP in the gypsum core, 1 week), 0/0; in assay [1] (500 ppm OPP in the gypsum core, 3 weeks), 0/0. Moreover, the “Rating (mould growth on plasterboard surface)” value was 0/0 in assay [1] (500 ppm OPP in the gypsum core, 4 weeks); 0/0 in assay [1] (500 ppm OPP in the gypsum core, 8 weeks); 0/0 in assay [1] (750 ppm OPP in the gypsum core, 1 week); 0/0 in assay [1] (750 ppm OPP in the gypsum core, 3 weeks); 0/0 in assay [1] (750 ppm OPP in the gypsum core, 4 weeks); 0/0 in assay [1] (750 ppm OPP in the gypsum core, 8 weeks). For the same compound, the “Concentration of use from which good effectiveness was found” value in assay [1] (based on the weight of the gypsum core) is at least 300 ppm. The MIC in assay [2] came out at 100 µg/mL.
Turning to `c1ccc2[nH]c(-c3cscn3)nc2c1` [TBZ, thiabendazole, reference compound], the MIC in assay [2] (substance used alone) is 500 µg/mL.
